Measured values as given in patent US8871767B2, “2-arylimidazo[1,2-B]pyridazine, 2-phenylimidazo[1,2-A]pyridine, and 2-phenylimidazo[1,2-A]pyrazine derivatives” (Hengrui (USA) Ltd., priority 2010, dated 2014).
Like-named read-outs stand apart in the source and are kept apart here.

Assays:
[1] = system: Hedgehog pathway activation on 10T1/2/Smo#3 cells (C3H10T1/2 cells transfected with human Smoothened receptor); experiment: Hedgehog pathway activation on 10T1/2/Smo#3 cells measured by ALP activity; format: cell-based; settings: Mus musculus, C3H 10T1/2, 10T1/2/Smo#3 cells
How it was run: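 Inhibition of alkaline phosphatase induction, read fluorometrically from 4-methylumbelliferyl phosphate conversion, gave IC50 values; CellTiter-Blue tracked viability in parallel. Cells were the human Smo-transfected 10T1/2/Smo#3 pool, stimulated by 10-20% hShh conditioned medium or the Smo agonist SAG (500 nM).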

[2] = system: Hedgehog pathway activation (GLi-luciferase reporter) in Shh Light II reporter cells; experiment: Hedgehog pathway activation on Shh Light II reporter cells measured by luciferase activity; format: cell-based; settings: Mus musculus, Shh Light II
How it was run: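 Shh Light II reporter cells carrying a hedgehog-responsive GLi-luciferase reporter were stimulated either with 500 nM SAG, a direct Smoothened agonist, or with conditioned media containing human Sonic Hedgehog (hShh). Test compounds were evaluated for blocking this pathway activation, quantified by luciferase activity. Cell viability was monitored in parallel with the Celltiter-Blue® assay.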

[3] = hShh activation, ALP activity, read-out: 10T1/2/Smo#3 ALP activity (hShh Activation)
[4] = measured by ALP activity, read-out: ALP (IC50, inhibition of Hedgehog pathway activation)
[5] = SAG activation (500 nM SAG), read-out: Shh Light II luciferase activity (SAG activation)
[6] = hShh activation, read-out: Shh (IC50, inhibition of Hedgehog pathway activation)
[7] = hShh activation, read-out: Shh Light II luciferase activity (hShh activation)

CC(C)(C)C(=O)Nc1cc(-c2cn3cc(Cl)ccc3n2)ccc1C(F)(F)F [Example 81, N-(5-(6-chloroimidazo[1,2-a]pyridin-2-yl)-2-(trifluoromethyl)phenyl)pivalamide]
IC50 [1, 3]: 300 to 3000 nM
IC50 [1, 4]: 2430 nM
IC50 [2, 5]: 300 to 3000 nM
IC50 [2, 6]: 1070 nM
IC50 [2, 7]: 300 to 3000 nM

Cc1ccc(-c2cn3nc(N4CCC(N(C)C(=O)C(N)C(C)C)C4)ccc3n2)cc1NC(=O)C(C)(C)C (centres unmarked) [Example 637, 2-amino-N,3-dimethyl-N-(1-(2-(4-methyl-3-pivalamidophenyl)imidazo[1,2-b]pyridazin-6-yl)pyrrolidin-3-yl)butanamide]
IC50 [1, 4]: 418 nM
IC50 [2, 6]: 2180 nM

Cc1ccc(-c2cn3nc(NC(=O)c4cccc(Br)c4)ccc3n2)cc1NC(=O)C(C)(C)C [compound 594]
IC50 [1, 4]: 30 nM
IC50 [2, 6]: 20 nM

CC(C)(C(=O)Nc1cc(-c2cn3nc(-c4cccnc4C(F)(F)F)ccc3n2)c(F)cc1Cl)C(F)(F)F [Example 660, N-(2-chloro-4-fluoro-5-(6-(2-(trifluoromethyl)pyridin-3-yl)imidazo[1,2-b]pyridazin-2-yl)phenyl)-3,3,3-trifluoro-2,2-dimethylpropanamide]
IC50 [1, 4]: 17 nM
IC50 [2, 6]: 32 nM

CCOC(=O)COc1ccc(C(F)(F)F)c(-c2ccc3nc(-c4ccc(C)c(NC(=O)C(C)(C)C)c4)cn3n2)c1 [Example 477, ethyl 2-(3-(2-(4-methyl-3-pivalamidophenyl)imidazo[1,2-b]pyridazin-6-yl)-4-(trifluoromethyl)phenoxy)acetate]
IC50 [1, 4]: 521 nM
IC50 [2, 6]: 247 nM

CC(C)(C)C(=O)Nc1cc(-c2cn3nc(-c4ccccc4Cl)ccc3n2)ccc1C(F)(F)F [Example 208, N-(5-(6-(2-chlorophenyl)imidazo[1,2-b]pyridazin-2-yl)-2-(trifluoromethyl)phenyl)pivalamide]
IC50 [1, 4]: 140 nM
IC50 [2, 6]: 95 nM

Cc1c(-c2ccccc2)nc2ccc(N3CCN(C(=O)CCc4ccccc4)CC3)nn12 [Example 156, 1-(4-(3-methyl-2-phenylimidazo[1,2-b]pyridazin-6-yl)piperazin-1-yl)-3-phenylpropan-1-one]
IC50 [1, 4]: 8840 nM
IC50 [2, 6]: 3430 nM

CC(C)(C)C(=O)Nc1cc(-c2cn3nc(OC4CCC(O)CC4)ccc3n2)ccc1C(F)(F)F (centres unmarked) [Example 375, N-(5-(6-(4-hydroxycyclohexyloxy)imidazo[1,2-b]pyridazin-2-yl)-2-(trifluoromethyl)phenyl)pivalamide]
IC50 [1, 4]: 372 nM
IC50 [2, 6]: 316 nM

Cc1ccc(-c2cn3nc(-c4cccc(C(=O)Nc5ccccc5N)c4)ccc3n2)cc1NC(=O)C(C)(C)C [compound 598]
IC50 [1, 4]: 424 nM
IC50 [2, 6]: 59 nM

Cc1c(-c2ccccc2)nc2ccc(N3CCN(Cc4cccc(C(F)(F)F)c4)CC3)nn12 [Example 165, 3-methyl-2-phenyl-6-(4-(3-(trifluoromethyl)benzyl)piperazin-1-yl)imidazo[1,2-b]pyridazine]
IC50 [1, 4]: > 10000 nM
IC50 [2, 6]: 890 nM

CC(C)(C(=O)Nc1cc(-c2cn3nc(-c4cccnc4C(F)(F)F)ccc3n2)ccc1Cl)C(F)(F)F [Example 665, N-(2-chloro-5-(6-(2-(trifluoromethyl)pyridin-3-yl)imidazo[1,2-b]pyridazin-2-yl)phenyl)-3,3,3-trifluoro-2,2-dimethylpropanamide]
IC50 [1, 4]: 120 nM
IC50 [2, 6]: 19 nM

Cc1ccc(-c2cn3nc(-c4cc(C#N)ccc4Cl)ccc3n2)cc1NC(=O)C(C)(C)C [compound 565]
IC50 [1, 4]: 61 nM
IC50 [2, 6]: 9 nM

Cc1ccc(-c2cn3nc(-c4cscn4)ccc3n2)cc1NC(=O)C(C)(C)C [Example 445, N-(2-methyl-5-(6-(thiazol-4-yl)imidazo[1,2-b]pyridazin-2-yl)phenyl)pivalamide]
IC50 [1, 4]: 578 nM
IC50 [2, 6]: 794 nM

Cc1ccc(-c2cn3nc(-c4ccc(C(C)(C)O)cc4C(F)(F)F)ccc3n2)cc1NC(=O)C(C)(C)C [compound 533]
IC50 [1, 4]: 449 nM
IC50 [2, 6]: 301 nM

Cc1cc(-c2ccc3nc(-c4ccc(C(F)(F)F)c(NC(=O)C(C)(C)C)c4)cn3n2)ccn1 [Example 381, N-(5-(6-(2-methylpyridin-4-yl)imidazo[1,2-b]pyridazin-2-yl)-2-(trifluoromethyl)phenyl)pivalamide]
IC50 [1, 4]: 580 nM
IC50 [2, 6]: 1250 nM

CC(C)(C)C(=O)Nc1cc(-c2cn3nc(-c4cccc(F)c4)ccc3n2)ccc1C(F)(F)F [Example 222, N-(5-(6-(3-fluorophenyl)imidazo[1,2-b]pyridazin-2-yl)-2-(trifluoromethyl)phenyl)pivalamide]
IC50 [1, 4]: 425 nM
IC50 [2, 6]: 156 nM

CC(C)(C)C(=O)Nc1cc(-c2cn3nc(-c4cc(Cl)ccc4F)ccc3n2)ccc1C(F)(F)F [Example 227, N-(5-(6-(5-chloro-2-fluorophenyl)imidazo[1,2-b]pyridazin-2-yl)-2-(trifluoromethyl)phenyl)pivalamide]
IC50 [1, 4]: 141 nM
IC50 [2, 6]: 65 nM

Cc1ccc(-c2cn3nc(-c4cccc(O)c4)ccc3n2)cc1NC(=O)C(C)(C)C [Example 264, N-(5-(6-(3-hydroxyphenyl)imidazo[1,2-b]pyridazin-2-yl)-2-methylphenyl)pivalamide]
IC50 [1, 4]: 544 nM
IC50 [2, 6]: 2010 nM

Cc1ccc(-c2cn3nc(Cl)ccc3n2)cc1NC(=O)C(C)(C)C [Example 118, N-(5-(6-chloroimidazo[1,2-b]pyridazin-2-yl)-2-methylphenyl)pivalamide]
IC50 [1, 4]: 1200 nM
IC50 [2, 6]: 613 nM

CC(C)(C)C(=O)Nc1cc(-c2cn3nc(N4CCCC(CO)C4)ccc3n2)ccc1C(F)(F)F (centres unmarked) [Example 354, N-(5-(6-(3-(hydroxymethyl)piperidin-1-yl)imidazo[1,2-b]pyridazin-2-yl)-2-(trifluoromethyl)phenyl)pivalamide]
IC50 [1, 4]: 554 nM
IC50 [2, 6]: 332 nM

Cc1ccc(-c2cn3nc(-c4cccnc4C(F)(F)F)ccc3n2)cc1NC(=O)C(C)(C)C(F)(F)F [Example 638, 3,3,3-trifluoro-2,2-dimethyl-N-(2-methyl-5-(6-(2-(trifluoromethyl)pyridin-3-yl)imidazo[1,2-b]pyridazin-2-yl)phenyl)propanamide]
IC50 [1, 4]: 20 nM
IC50 [2, 6]: 20 nM

Cc1ccc(-c2cn3nc(C4CC4)ccc3n2)cc1NC(=O)C(C)(C)C [Example 127, N-(5-(6-cyclopropylimidazo[1,2-b]pyridazin-2-yl)-2-methylphenyl)pivalamide]
IC50 [1, 3]: < 300 nM
IC50 [1, 4]: 110 nM
IC50 [2, 5]: 300 to 3000 nM
IC50 [2, 6]: 4970 nM
IC50 [2, 7]: 300 to 3000 nM

Cc1ccc(-c2cn3nc(-c4cc(C(N)=NO)ccc4Cl)ccc3n2)cc1NC(=O)C(C)(C)C [compound 569]
IC50 [1, 3]: < 300 nM
IC50 [1, 4]: 86 nM
IC50 [2, 5]: 300 to 3000 nM
IC50 [2, 6]: 32 nM
IC50 [2, 7]: < 300 nM

CC(C)(C)C(=O)Nc1cc(-c2cn3nc(-c4cccnc4C(F)(F)F)ccc3n2)c(F)cc1Cl [Example 650, N-(2-chloro-4-fluoro-5-(6-(2-(trifluoromethyl)pyridin-3-yl)imidazo[1,2-b]pyridazin-2-yl)phenyl)pivalamide]
IC50 [1, 3]: < 300 nM
IC50 [1, 4]: 25 nM
IC50 [2, 5]: < 300 nM
IC50 [2, 6]: 100 nM
IC50 [2, 7]: < 300 nM

CCN[C@@H]1CCN(c2ccc3nc(-c4ccc(C)c(NC(=O)C(C)(C)C)c4)cn3n2)C1 [Example 393, (R)-N-(5-(6-(3-(ethylamino)pyrrolidin-1-yl)imidazo[1,2-b]pyridazin-2-yl)-2-methylphenyl)pivalamide]
IC50 [1, 3]: < 300 nM
IC50 [1, 4]: 34 nM
IC50 [2, 5]: 300 to 3000 nM
IC50 [2, 6]: 31 nM
IC50 [2, 7]: < 300 nM

COc1ccc2nc(-c3ccc(C)c(NC(=O)c4ccccc4C(F)(F)F)c3)cn2n1 [Example 99, N-(5-(6-methoxyimidazo[1,2-b]pyridazin-2-yl)-2-methylphenyl)-2-(trifluoromethyl)benzamide]
IC50 [1, 4]: 3690 nM
IC50 [2, 6]: > 10000 nM

CN(C)S(=O)(=O)c1cc(-c2cn3nc(-c4cccnc4C(F)(F)F)ccc3n2)ccc1Cl [Example 700, 2-chloro-N,N-dimethyl-5-(6-(2-(trifluoromethyl)pyridin-3-yl)imidazo[1,2-b]pyridazin-2-yl)benzenesulfonamide]
IC50 [1, 4]: > 10000 nM
IC50 [2, 6]: 2500 nM

CN(C)C1CCN(c2ccc3nc(-c4ccc(C(F)(F)F)c(NC(=O)C(C)(C)C)c4)cn3n2)C1 (centres unmarked) [Example 350, N-(5-(6-(3-(dimethylamino)pyrrolidin-1-yl)imidazo[1,2-b]pyridazin-2-yl)-2-(trifluoromethyl)phenyl)pivalamide]
IC50 [1, 4]: 28 nM
IC50 [2, 6]: 65 nM

Cc1ccc(-c2cn3nc(-c4cccc(C(F)(F)F)c4)ccc3n2)cc1NC(=O)C(C)(C)C [Example 260, N-(2-methyl-5-(6-(3-(trifluoromethyl)phenyl)imidazo[1,2-b]pyridazin-2-yl)phenyl)pivalamide]
IC50 [1, 4]: 325 nM
IC50 [2, 6]: 297 nM

CC(C)(C)C(=O)Nc1cc(-c2cn3nc(-c4ccccc4C(F)(F)F)ccc3n2)ccc1C#N [Example 225, N-(2-cyano-5-(6-(2-(trifluoromethyl)phenyl)imidazo[1,2-b]pyridazin-2-yl)phenyl)pivalamide]
IC50 [1, 3]: < 300 nM
IC50 [1, 4]: 65 nM
IC50 [2, 5]: 3000 to 30000 nM
IC50 [2, 6]: 48 nM
IC50 [2, 7]: < 300 nM

Cc1c(-c2ccccc2)nc2ccc(N3CCN(C(=O)c4ccccc4)CC3)nn12 [Example 154, (4-(3-methyl-2-phenylimidazo[1,2-b]pyridazin-6-yl)piperazin-1-yl)(phenyl)methanone]
IC50 [1, 4]: 2890 nM
IC50 [2, 6]: 3400 nM
